Data taken from patent publication US9834558B2, “Substituted bridged urea analogs as sirtuin modulators” (GLAXOSMITHKLINE LLC, priority 2013, dated 2017).
Where two headings read alike, the source gives them in different places.

Molecular target: T1, SIRT1 (Homo sapiens, UniProt Q96EB6)
T1 sequence (Q96EB6 1-747): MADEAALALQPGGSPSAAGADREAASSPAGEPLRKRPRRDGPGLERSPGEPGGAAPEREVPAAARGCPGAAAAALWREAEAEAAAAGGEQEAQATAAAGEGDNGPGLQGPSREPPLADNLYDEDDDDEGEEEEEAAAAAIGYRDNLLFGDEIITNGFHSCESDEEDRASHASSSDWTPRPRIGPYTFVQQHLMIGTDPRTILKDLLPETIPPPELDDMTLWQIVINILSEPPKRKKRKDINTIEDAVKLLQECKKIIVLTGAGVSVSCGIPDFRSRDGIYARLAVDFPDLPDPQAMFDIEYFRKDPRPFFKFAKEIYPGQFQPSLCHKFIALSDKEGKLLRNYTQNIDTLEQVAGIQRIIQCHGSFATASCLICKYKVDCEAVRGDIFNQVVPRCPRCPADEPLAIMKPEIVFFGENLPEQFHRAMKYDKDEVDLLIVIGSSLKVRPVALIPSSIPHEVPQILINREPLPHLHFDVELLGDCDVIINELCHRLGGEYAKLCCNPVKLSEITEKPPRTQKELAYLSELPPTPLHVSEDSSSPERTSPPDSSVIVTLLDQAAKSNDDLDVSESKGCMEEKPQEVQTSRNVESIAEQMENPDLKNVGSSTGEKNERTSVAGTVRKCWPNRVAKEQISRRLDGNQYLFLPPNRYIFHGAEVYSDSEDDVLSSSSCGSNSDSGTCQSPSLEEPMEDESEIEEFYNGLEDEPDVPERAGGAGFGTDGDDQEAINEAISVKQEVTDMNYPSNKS
Assay: Trp mass spectrometry assay of SIRT1 activation
Type: biochemical
Details: for TRP Activity (EC1.5): EC1.5 = concentration that results in 150% activation of SIRT1
Outline: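 Activation read-out: mass-spec measurement of O-acetyl-ADP-ribose or deacetylated Trp peptide versus compound-free controls, giving EC1.5 and Percent Maximum Activation. Reactions ran 25 min at 25 °C, pH 7.5, with 120 μM βNAD+, 0.5 μM acetylated p53-derived peptide and 10 nM His-tagged SIRT1.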

[1] = concentration giving 150% activation of SIRT1, Trp peptide substrate
[2] = Trp peptide assay, maximum activity relative to control (100%), read-out: TRP MAX RESP (percent maximum fold activation)
[3] = Trp mass spectrometry assay, EC1.5 = concentration of test compound that results in 150% activation of SIRT1
[4] = Trp mass spectrometry assay, concentration of test compound giving 150% activation of SIRT1
[5] = Trp mass spectrometry assay, percent maximum fold activation of SIRT1, read-out: Tryp % Fold Act

Compound: O=C(C1CC1)N1CCC(c2cccc(NC(=O)N3c4nc(-c5cccc(C(F)(F)F)c5)ccc4N4CC[C@H]3C4)c2)C1 (stereo partly drawn) [Example 637]
- Tryp AVG EC1.5 (μM) [1]: A (A (EC1.5<1 μM))

Compound: Cc1cc(-c2ccc3c(n2)N(C(=O)Nc2cnccn2)[C@H]2CCN3C2)[nH]n1 [(9S)-5-(3-methyl-1H-pyrazol-5-yl)-N-(pyrazin-2-yl)-1,6,8-triazatricyclo[7.2.1.0^{2,7}]dodeca-2(7),3,5-triene-8-carboxamide]
- TRP Activity (EC1.5) (Trp peptide assay): B (B (EC1.5 1-25 μM))
- Emax [2]: > 150%

Compound: Cc1ccc(-c2ccc3c(n2)N(C(=O)NCC2CC2)[C@H]2CCN3C2)cn1 [(9S)-N-(cyclopropylmethyl)-5-(6-methylpyridin-3-yl)-1,6,8-triazatricyclo[7.2.1.0^{2,7}]dodeca-2,4,6-triene-8-carboxamide]
- TRP Activity (EC1.5) (Trp peptide assay): B (B (EC1.5 1-25 μM))
- Emax [2]: > 150%

Compound: O=C(Nc1cnccn1)N1c2nc(-c3ccnc(N4CC[C@H](F)C4)c3)ccc2N2CC[C@H]1C2 [Example 436]
- Tryp AVG EC1.5 (μM) [3]: A (A (EC1.5<1 μM))

Compound: O=C(Nc1ccccn1)N1c2nc(-c3cccc(C(F)(F)F)c3)ccc2N2CC[C@@H]1C2 [Example 823]
- Tryp AVG EC1.5 (μM) [1]: A (A (EC1.5<1 μM))

Compound: O=C(Nc1cc(Br)cc(-c2cnco2)c1)N1c2nc(-c3cccc(C(F)(F)F)c3)ccc2N2CC[C@H]1C2 [Example 562]
- Tryp AVG EC1.5 (μM) [3]: A (A (EC1.5<1 μM))

Compound: O=C(Nc1cccnc1)N1c2nc(-c3cc[nH]n3)ccc2N2CC[C@H]1C2 [Example 493]
- Tryp AVG EC1.5 (μM) [3]: B (B (EC1.5 1-25 μM))

Compound: O=C(Nc1cccnc1)N1c2nc(-c3cnn(C4CCCC4)c3)ccc2N2CC[C@H]1C2 [Example 587]
- Tryp AVG EC1.5 (μM) [3]: B (B (EC1.5 1-25 μM))

Compound: O=C(Nc1cccnc1)N1c2nc(-c3cncc(C(F)(F)F)c3)ccc2N2C[C@@H](O)[C@H]1C2 [Example 705]
- Tryp AVG EC1.5 (μM) [1]: B (B (EC1.5 1-25 μM))

Compound: O=C(Nc1cccc(CN2CCOCC2)c1)N1c2nc(-c3cccc(C(F)(F)F)c3)ccc2N2CC[C@H]1C2 [Example 629]
- Tryp AVG EC1.5 (μM) [1]: A (A (EC1.5<1 μM))

Compound: O=C(Nc1ccc(F)cn1)N1c2nc(-c3cccc(C(F)(F)F)n3)ccc2N2CC[C@H]1C2 [Example 340]
- Tryp AVG EC1.5 (μM) [4]: B (B (EC1.5 1-25 μM))

Compound: C[C@@H]1CCN(C)c2ccc(-c3cccc(CC(O)CO)c3)nc2N1C(=O)Nc1ccc(F)cn1 (stereo partly drawn) [Example 356]
- Tryp AVG EC1.5 (μM) [4]: A (A (EC1.5<1 μM))
- Emax [5]: > 150%

Compound: Cc1c(-c2ccc3c(n2)C(C(=O)Nc2cnccn2)[C@H]2CCN3C2)cnn1C (stereo partly drawn) [Example 532]
- Tryp AVG EC1.5 (μM) [3]: B (B (EC1.5 1-25 μM))
- Emax [5]: > 150%

Compound: Cc1nc(-c2cccc(NC(=O)N3c4nc(-c5cccc(C(F)(F)F)c5)ccc4N4CC[C@H]3C4)c2)cs1 [Example 583]
- Tryp AVG EC1.5 (μM) [3]: A (A (EC1.5<1 μM))

Compound: Cc1cncc(NC(=O)N2c3nc(-c4cncc(C(F)(F)F)c4)ccc3N3C[C@@H](O)[C@H]2C3)c1 [Example 690]
- Tryp AVG EC1.5 (μM) [1]: B (B (EC1.5 1-25 μM))

Compound: NCc1cn(-c2cccc(NC(=O)N3c4nc(-c5cccc(C(F)(F)F)c5)ccc4N4CC[C@H]3C4)c2)nn1 [Example 606]
- Tryp AVG EC1.5 (μM) [3]: A (A (EC1.5<1 μM))

Compound: O=C(Nc1cnccn1)N1c2nc(-c3cccc(Cl)c3)ccc2N2CCC1CC2 [Example 543]
- Tryp AVG EC1.5 (μM) [3]: B (B (EC1.5 1-25 μM))

Compound: Cc1nc(C)c(-c2ccc3c(n2)N(C(=O)Nc2cccnc2)[C@H]2CCN3C2)s1 [Example 495]
- Tryp AVG EC1.5 (μM) [3]: B (B (EC1.5 1-25 μM))

Compound: O=C(Nc1ccncn1)N1c2nc(-c3cccc(N4CCOCC4)c3)ccc2N2CCC[C@H]1C2 [Example 529]
- Tryp AVG EC1.5 (μM) [3]: B (B (EC1.5 1-25 μM))

Compound: Cc1ccncc1-c1ccc2c(n1)N(C(=O)Nc1cncc(F)c1)[C@H]1CCCN2C1 [Example 510]
- Tryp AVG EC1.5 (μM) [3]: B (B (EC1.5 1-25 μM))

Compound: O=C(Nc1cnccn1)N1c2nc(-c3ccnc(N4CCC(F)(F)C4)c3)ccc2N2CC[C@H]1C2 [Example 423]
- Tryp AVG EC1.5 (μM) [3]: A (A (EC1.5<1 μM))

Compound: CC(C)(C)OC(=O)N1CCc2ccc(NC(=O)N3c4nc(-c5cccc(C(F)(F)F)c5)ccc4N4CC[C@H]3C4)cc2C1 [Example 609]
- Tryp AVG EC1.5 (μM) [3]: B (B (EC1.5 1-25 μM))

Compound: O=C(Nc1cccc(C2CCNC2)c1)N1c2nc(-c3cccc(C(F)(F)F)c3)ccc2N2CC[C@H]1C2 (stereo partly drawn) [Example 593]
- Tryp AVG EC1.5 (μM) [3]: A (A (EC1.5<1 μM))

Compound: O=C(Nc1ccncn1)N1c2nc(-c3ccnc(C(F)(F)F)c3)ccc2N2CCC[C@H]1C2 [(9S)-N-(pyrimidin-4-yl)-5-[2-(trifluoromethyl)pyridin-4-yl]-1,6,8-triazatricyclo[7.3.1.0 {2,7}]trideca-2(7),3,5-triene-8-carboxamide]
- TRP Activity (EC1.5) (Trp peptide assay): A (A (EC1.5<1 μM))
- Emax [2]: > 150%

Compound: CCc1cc(-c2ccc3c(n2)N(C(=O)Nc2cnccn2)[C@H]2CCN3C2)ccn1 [(9S)-5-(2-ethylpyridin-4-yl)-N-(pyrazin-2-yl)-1,6,8-triazatricyclo[7.2.1.0 {2,7}]dodeca-2(7),3,5-triene-8-carboxamide]
- TRP Activity (EC1.5) (Trp peptide assay): A (A (EC1.5<1 μM))
- Emax [2]: > 150%

Compound: COc1ncc(-c2ccc3c(n2)N(C(=O)Nc2cnccn2)[C@H]2CCN3C2)c(OC)n1 [Example 398]
- Tryp AVG EC1.5 (μM) [4]: B (B (EC1.5 1-25 μM))

Compound: CCCn1cc(-c2ccc3c(n2)N(C(=O)Nc2cccnc2)[C@H]2CCN3C2)cn1 [Example 487]
- Tryp AVG EC1.5 (μM) [3]: B (B (EC1.5 1-25 μM))

Compound: Cc1cncc(NC(=O)N2c3nc(-c4cccc(Cl)c4)ccc3N3C[C@@H](O)[C@H]2C3)c1 [Example 677]
- Tryp AVG EC1.5 (μM) [1]: B (B (EC1.5 1-25 μM))

Compound: O=C(CCCC[C@@H]1SCC2NC(=O)NC21)NCCCCCC(=O)NCc1ccc(NC(=O)N2c3nc(-c4cccc(C(F)(F)F)c4)ccc3N3CC[C@H]2C3)cc1 (stereo partly drawn) [Example 428]
- Tryp AVG EC1.5 (μM) [3]: A (A (EC1.5<1 μM))

Compound: Cc1cc(-c2ccc3c(n2)N(C(=O)N2CCCCC2)[C@H]2CCN3C2)ccn1 [(9S)-5-(2-methylpyridin-4-yl)-8-[(piperidin-1-yl)carbonyl]-1,6,8-triazatricyclo[7.2.1.0 {2,7}]dodeca-2,4,6-triene]
- TRP Activity (EC1.5) (Trp peptide assay): C (C (EC1.5>25 μM))
- Emax [2]: < 150%

Compound: C#CCCCNc1nccc(NC(=O)N2c3nc(-c4ccc(C5(C(F)(F)F)N=N5)cc4)ccc3N3CC[C@H]2C3)n1 [Example 798]
- Tryp AVG EC1.5 (μM) [1]: A (A (EC1.5<1 μM))
- Emax (percent maximum fold activation of SIRT1, Trp peptide substrate, read-out: Tryp % Fold Act): > 150%

Compound: O=C(Nc1cnccn1)N1c2nc(-c3cncc(F)c3)ccc2N2CCC[C@H]1C2 [Example 432]
- Tryp AVG EC1.5 (μM) [3]: B (B (EC1.5 1-25 μM))

Compound: Cn1ccc(-c2ccc3c(n2)N(C(=O)Nc2cnccn2)[C@H]2CCN3C2)cc1=O [(9S)-5-(1-methyl-2-oxo-1,2-dihydropyridin-4-yl)-N-(pyrazin-2-yl)-1,6,8-triazatricyclo[7.2.1.0^{2,7}]dodeca-2(7),3,5-triene-8-carboxamide]
- TRP Activity (EC1.5) (Trp peptide assay): B (B (EC1.5 1-25 μM))
- Emax [2]: > 150%
